# Reference: patent publication US10760130B2, “Predictive biomarker for hypoxia-activated prodrug therapy” (MOLECULAR TEMPLATES, INC., priority 2014, dated 2020)
# What was measured:
# [1] = tested on: locally advanced or metastatic pancreatic cancer; test: TH-CR-404 Phase II clinical trial in pancreatic cancer (NCT01144455); format: in vivo, human
# Description: In the TH-CR-404 Phase II clinical trial in pancreatic cancer (NCT01144455), pancreatic cancer patients with locally advanced or metastatic disease were randomized in three study arms to receive Gemcitabine (Gem) therapy or the combination of Gemcitabine with one of 2 dose levels of TH-302. TH-302 was administered either at 240 or 340 mg/m^2 by intravenous infusion. A total of 214 patients were enrolled (Gemcitabine arm, n=69; Gemcitabine+TH-302 240 mg/m^2, n=71; Gemcitabine+TH-302 340 mg/m^2, n=74).
# To search for potentially predictive serum biomarkers of the clinical benefit derived from TH-302 hypoxia-activated therapy, an initial search of candidate biomarkers was conducted from the trial pre-treatment serum samples using a multiplexed bead-based immunoassay (AssayGate, Inc., Ijamsville, Md.). When measuring serum samples for ENO1 and ENO2 protein levels by means of this bead-based, suspension immunoassay format for ENO1, the limit of detection of the assay was 1.8 ng/ml. For ENO2, the assay sensitivity was 1.2 ng/ml.
# Following the identification of ENO2 as a potentially predictive biomarker for the clinical benefit derived from TH-302, the levels of ENO1 were tested in the same patient serum samples (Harris A L, 2002, Nat Rev Cancer 2: 38-47; Semenza G L, 2003, Nat Rev Cancer 3: 721-732). High levels of ENO1 were associated with improved PFS and OS in Gemcitabine+TH-302 340 mg/m^2 patient samples in this trial (FIG. 2). These associations were shown using the ENO1 cut-off value of the assay sensitivity limit (1.8 ng/ml) (FIGS. 2A and 2B).
# [2] = tested on: locally advanced or metastatic pancreatic cancer; conditions: cited from earlier work
# [3] = tested on: panel of 11 cancer cell-line derived models; conditions: tumor xenografts, variety of tumor types; cited from earlier work
structure (smiles),measurement,setting,value
"Cn1c(COP(=O)(NCCBr)NCCBr)cnc1[N+](=O)[O-] [TH-302, (2-bromoethyl)({[(2-bromoethyl)amino][(2-nitro-3-methylimidazol-4-yl)methoxy]phosphoryl})amine]",difference between treatment groups of median PFS time among patients with high ENO2,"[1]; Gem vs Gem+TH-302 340 mg/m^2, ENO2 median cut-off 20.3913 ng/ml, FIG. 1A",more pronounced
same,difference between treatment groups of median OS time among patients with high ENO2,"[1]; Gem vs Gem+TH-302 340 mg/m^2, ENO2 median cut-off 20.3913 ng/ml, FIG. 1B",more pronounced
same,OS in patients with high serum ENO1 levels,"[1]; Gemcitabine+TH-302 340 mg/m^2, ENO1 cut-off 1.8 ng/ml (more pronounced at 2.3 and 3.2 ng/ml), FIG. 2B-2D",improved
same,PFS in patients with high serum ENO1 levels,"[1]; Gemcitabine+TH-302 340 mg/m^2, ENO1 cut-off 1.8 ng/ml, FIG. 2A",improved
same,progression free survival (PFS) hazard ratio (HR),"[2]; Gemcitabine+TH-302 340 mg/m^2 (high-dose group) vs Gemcitabine alone, intravenous infusion, p=0.008",0.58
same,primary endpoint: progression free survival (PFS),[2]; Gemcitabine+TH-302 groups (240 or 340 mg/m^2) compared to Gemcitabine alone,improved progression free survival
same,monotherapy efficacy (tumor growth delay),[3],modest
